Data set [1] deals with Salmonella Typhimurium TA 100. The data set is described as follows: Ames test for mutagenicity (plate assay, colony count). Conditions: 48 hours at 37° C.
In the next data set the test system is P-ERK. In words: Western blot of treated ADPKD cells. It counts as cell-based, human. The note with it: 50 uM for 48 h, n=2. The protocol: (§1) Gamendazole (GMZ) was tested to determine if treatment decreases Hsp90 client protein levels in ADPKD cells. Briefly, ADPKD cells were treated with 50 μM GMZ for 24, 48 or 72 hours. Proteins from 20 μg total cell lysate were separated by SDS-PAGE, transferred to a PVDF membrane and probed with antibodies against the Hsp90 client proteins ErbB2 (185 kD), and cdk4 (34 kD). […] GMZ decreased the total levels of these client proteins in ADPKD cells. A decrease in P-ERK correlates with the inhibition of cell proliferation by GMZ. […] The data also provides an indication that other lonidamine derivatives may be useful in therapies for PKD.

For a further data set, the system named is total ERK. The data set is described as follows: Western blot of treated ADPKD cells. Conditions: 50 uM for 48 h. In kind it is cell-based, human. The procedure: as §1
(In general: In western blotting, separated proteins are transferred to a membrane and probed.)

In the next data set the test system is NKCC1. The data set is described as follows: Immunostaining of organ culture kidney sections. In kind it is cell-based, mouse. The note with it: 1-5 uM, cAMP-treated E15.5 organ culture kidneys, images not shown. The protocol:
To also test whether GMZ can target the Hsp90 client protein NKCC1, sections of E15.5 organ culture kidneys treated with cAMP or cAMP plus GMZ were immunostained with an antibody for NKCC1 (methods in Magenheimer, et al., 2006). […] Consistent with the known localization of NKCC1 in the kidney, the immunolabeling appeared to be decreased in the metanephric mesenchyme and collecting ducts when GMZ was used at 1-5 uM.

Another data set deals with pcy mouse. In words: In vivo treatment of the pcy mouse. The note with it: 1 mg/kg IP, three times weekly from 5-20 weeks of age, after 12 weeks of treatment. From the text: The Pkd1 gene is orthologous to the gene involved in ˜85% of human ADPKD cases. […] Biol Reprod. 78(6):1139-52 (2008). If so, it could be reducing the levels of the Hsp90 client proteins, CFTR and NKCC1, both important for cyst-filling chloride secretion. Evidence is shown here that NKCC1 protein levels were reduced by GMZ treatment of metanephric kidneys in organ culture. Evidence was also shown for decreased PCNA levels, which is consistent with a general decrease in cell proliferation in these kidneys in organ culture, due probably to Hsp90 inhibition. The efficacy of GMZ on inhibition of cyst growth in vivo is currently being tested in the pcy mouse, a mouse model of nephronophthisis-3 (NPHP3) which has a slowly progressive renal cystic disease. […] Accordingly, gamendazole inhibits cell proliferation and cAMP-stimulated cyst-like expansion (in metanephric organ cultures). The mechanisms may involve: a direct and rapid inhibition of forskolin-stimulated CFTR channel activity; inhibition of Hsp90 chaperone function leading to long-term reduction of NKCC1 protein levels; or reduction of PKD proliferation pathway components. Thus, GMZ appears to be a potent inhibitor of these two important processes involved in PKD pathogenesis.

Take `O=C(O)/C=C/c1nn(Cc2ccc(Cl)cc2Cl)c2cc(C(F)(F)F)ccc12` [RC-MC-110, trans 3-[1-(2,4-dichlorobenzyl)-6-trifluoromethyl-1H-indazol-3-yl]-acrylic acid]: the “Ames test (+)S9 0.1 mg/pl.” value in data set [1] ((+)S9 mix, 0.1 mg/pl.) is reported as “Pass”. For the same molecule, the “Ames test (+)S9 1 mg/pl.” value in data set [1] ((+)S9 mix, 1 mg/pl.) is listed as “Pass”. The “Ames test (+)S9 10 mg/pl.” value in data set [1] ((+)S9 mix, 10 mg/pl.) is listed as “Pass”. Also, in data set [1] ((−)S9 mix, 0.1 mg/pl.), the “Ames test (−)S9 0.1 mg/pl.” value is “Pass”. Besides, in data set [1] ((−)S9 mix, 1 mg/pl.), the “Ames test (−)S9 1 mg/pl.” value is recorded as “Pass”. Further, the “Ames test (−)S9 10 mg/pl.” value in data set [1] ((−)S9 mix, 10 mg/pl.) is recorded as “Pass”.
Regarding `O=C(O)CCc1nn(Cc2ccc(Cl)cc2Cl)c2cc(C(F)(F)F)ccc12` [GMZ, 3-[1-(2,4-dichlorobenzyl)-6-trifluoromethyl-1H-indazol-3-yl]-propionic acid], the P-ERK levels in the data set with P-ERK is listed as 71.2 % of controls. For the same molecule, in the data set on total ERK, the “total ERK levels” value is “unchanged”. In addition, the NKCC1 staining entry in the data set with NKCC1 was “NKCC1 staining was reduced”. Also, the “Tolerability in the pcy mouse” value in the data set on pcy mouse is given as “the treated mice appear to be tolerating GMZ”.

Source of the values: patent US8362031B2, “Lonidamine analogues and treatment of polycystic kidney disease” (University of Kansas, priority 2004, dated 2013).
